Read-outs that look alike come from different tables or passages of the source.
Key:
[1] = test system: four human cancer cell lines; parameters: method as in doi:10.1016/j.molstruc.2023.136953; settings: earlier study of the authors; read-out: GI50 against the four cancer cell lines; cited from earlier work
[2] = molecular target: T1, HER-2 (Homo sapiens, UniProt P04626); parameters: method as in PMID 39434991; settings: earlier study of the authors; read-out: HER-2 inhibitory IC50; cited from earlier work
T1 construct: purchased Abcam ab60866

[3] = molecular target: T2, EGFR (Homo sapiens, UniProt P00533); parameters: 645–1186; His6 (N); made in house; host or cells: Sf-9 insect cells (baculovirus; pBlueBacHis2B / pFASTBacHTc); method as in PMID 39434991; settings: earlier study of the authors; read-out: EGFR inhibitory IC50; cited from earlier work
[4] = molecular target: T2, EGFR; parameters: 645–1186; His6 (N); made in house; host or cells: Sf-9 insect cells (baculovirus; pBlueBacHis2B / pFASTBacHTc); method as in doi:10.1016/j.molstruc.2023.136953; settings: earlier study of the authors; cited from earlier work
[5] = test system: pancreatic cancer (Panc-1); test: Antiproliferative assay, Panc-1; assay type: cell-based; settings: Homo sapiens; Panc-1 pancreatic cancer cell line; read-out: Antiproliferative activity IC50 ± SEM (nM) Panc-1
Method: (§1) 4.2.2. Assay for antiproliferative effect
(§2) To explore the antiproliferative potential of compounds propidium iodide fluorescence assay was performed using different cell lines such as Panc-1 (pancreas cancer cell line), MCF-7 (breast cancer cell line), HT-29 (colon cancer cell line) and A-549 (epithelial cancer cell line), respectively. To calculate the total nuclear DNA, a fluorescent dye (propidium iodide, PI) is used which can attach to the DNA, thus offering a quick and precise technique. PI cannot pass through the cell membrane and its signal intensity can be considered as directly proportional to quantity of cellular DNA. Cells whose cell membranes are damaged or have changed permeability are counted as dead ones. The assay was performed by seeding the cells of different cell lines at a density of 3000-7500 cells/well (in 200μl medium) in culture plates followed by incubation for 24h at 37 °C in humidified 5%CO2/95% air atmospheric conditions. The medium was removed; the compounds were added to the plates at 10 μM concentrations (in 0.1% DMSO) in triplicates, followed by incubation for 48h. DMSO (0.1%) was used as control. After incubation, medium was removed followed by the addition of PI (25 μl, 50μg/mL in water/medium) to each well of the plates. At -80 °C, the plates were allowed to freeze for 24 h, followed by thawing at 25 °C. A fluorometer (Polar-Star BMG Tech) was used to record the readings at excitation and emission wavelengths of 530 and 620 nm for each well. The percentage cytotoxicity of compounds was calculated using the following formula:
(§3) Where ATC= Absorbance of treated cells and AC= Absorbance of control. Erlotinib was used as positive control in the assay. […]

[6] = Cell viability assay (MTT) on MCF-10A normal cell line; assay type: cell-based; settings: human, MCF-10A mammary gland epithelial normal cells, MCF-10A cells, 50 μM of each compound, four days of incubation
Method: The human mammary gland epithelial (MCF-10A) normal cell line was used to examine the viability effects of new derivatives 5a–l using the MTT test.[33,34] Refer to Appendix A for more details.
The human mammary gland epithelium (MCF-10A) normal cell line was employed to evaluate the viability effects of novel derivatives 5a–l. The cell viability of 5a–l was assessed via the MTT assay following four days of incubation with 50 μM of each compound on MCF-10A cells.[33,34] […]
4.2. Biological evaluation
4.2.1 Cell Viability assay (MTT assay)
MTT assay was performed to investigate the effect of the synthesized compounds on mammary epithelial cells (MCF-10A). The cells were propagated in medium consisting of Ham's F-12 medium/ Dulbecco's modified Eagle's medium (DMEM) (1:1) supplemented with 10% foetal calf serum, 2 mM glutamine, insulin (10 μg/mL), hydrocortisone (500 ng/mL) and epidermal growth factor (20 ng/mL). Trypsin ethylenediamine tetra acetic acid (EDTA) was used to passage the cells after every 2-3 days. 96-well flat-bottomed cell culture plates were used to seed the cells at a density of 10^4 cells mL-1. The medium was aspirated from all the wells of culture plates after 24 h followed by the addition of synthesized compounds (in 200 μL medium to yield a final concentration of 0.1% (v/v) dimethyl sulfoxide) into individual wells of the plates. Four wells were designated to a single compound. The plates were allowed to incubate at 37°C for 96 h. Afterwards, the medium was aspirated and 3-[4,5-dimethylthiazol-2-yl]-2,5-diphenyltetrazolium bromide (MTT) (0.4 mg/mL) in medium was added to each well and subsequently incubated for 3 h. The medium was aspirated and 150 μL dimethyl sulfoxide (DMSO) was added to each well. The plates were vortexed followed by the measurement of absorbance at 540 nm on a microplate reader. The results were presented as inhibition (%) of proliferation in contrast to controls comprising 0.1% DMSO. […]

[7] = test system: four human cancer cell lines (A-549, MCF-7, Panc-1, HT-29); test: Antiproliferative assay, average over four cancer cell lines (GI50); assay type: cell-based; settings: for GI50: GI50 = mean IC50 against the four cancer cell lines; for Times more effective than erlotinib (GI50): ratio of GI50 versus erlotinib, four cancer cell lines
Method: as §1
To explore the antiproliferative potential of compounds propidium iodide fluorescence assay was performed using different cell lines such as Panc-1 (pancreas cancer cell line), MCF-7 (breast cancer […]
calculate the total nuclear DNA, a fluorescent dye (propidium iodide, PI) is used which can attach to the DNA, thus offering a quick and precise technique. PI cannot pass through the cell membrane and its signal intensity can be considered as directly proportional to quantity of cellular DNA. Cells whose cell membranes are damaged or have changed permeability are counted as dead ones. The assay was performed by seeding the cells of different cell lines at a density of 3000-7500 cells/well (in 200μl […]
atmospheric conditions. The medium was removed; the compounds were added to the plates at 10 μM concentrations (in 0.1% DMSO) in triplicates, followed by incubation for 48h. DMSO (0.1%) was used as control. After incubation, medium was removed followed by the addition of PI (25 μl, 50μg/mL in water/medium) to each well of the plates. At -80 °C, the plates were allowed to freeze for 24 h, followed by thawing at 25 °C. A fluorometer (Polar-Star BMG Tech) was used to record the readings at excitation and emission wavelengths of 530 and 620 nm for each well. The percentage cytotoxicity of compounds was calculated using the following formula:
Where ATC= Absorbance of treated cells and AC= Absorbance of control. […]
positive control in the assay. […]

[8] = molecular target: T2, EGFR; test: EGFR-TK inhibitory assay
Method: Baculoviral expression vectors including pBlueBacHis2B and pFASTBacHTc were used separately
upstream to the EGFR sequence comprised a sequence that encoded (His)6. Sf-9 cells were infected for 72h for protein expression. The pellets of Sf-9 cells were solubilized in a buffer containing sodium vanadate (100 μM), aprotinin (10 μg/mL), triton (1%), HEPES buffer(50mM), ammonium molybdate (10 μM), benzamidine HCl (16 μg/mL), NaCl (10 mM),leupeptin (10 μg/mL) and pepstatin (10 μg/mL) at 0°C for 20 min at pH 7.4, followed by centrifugation for 20 min. To eliminate the nonspecifically bound material, a Ni-NTA super flow packed column was used to pass through and wash the crude extract supernatant first with 10mM and then with 100 mM imidazole. Histidine-linked proteins were first eluted with 250 and then with 500 mM imidazole subsequent to dialysis against NaCl (50 mM), HEPES (20 mM), glycerol (10%) and 1 μg/mL each of aprotinin, leupeptin and pepstatin for 120 min. The purification was performed either at 4 °C or on ice. To record autophosphorylation level, EGFR kinase assay was carried out on the basis of DELFIA/Time-Resolved Fluorometry. The compounds were first dissolved in DMSO absolute, subsequent to dilution to appropriate concentration using HEPES (25 mM) at pH 7.4. Each compound (10 μL) was incubated with recombinant enzyme (10 μL, 5 ng for EGFR, 1:80 dilution in 100 mM HEPES) for 10 min at 25 °C, subsequent to the addition of 5X buffer (10 μL, containing 2 mM MnCl2, 100 μM Na3VO4, 20 mM HEPES and 1 mM DTT) and ATP-MgCl2 (20 μL, containing 0.1 mM ATP and 50 mM MgCl2) and incubation for 1h. The negative and positive controls were included in each plate by the incubation of enzyme either with or without ATP-MgCl2. The liquid was removed after incubation and the plates were washed thrice using a wash buffer. The Europium-tagged antiphosphotyrosine antibody (75 μL, 400 ng) was added to each well followed by incubation of 1h
and then washing of the plates using buffer. The enhancement solution was added to each well and
autophosphorylation percentage inhibition by compounds was calculated using the following
calculated. The majority of signals detected by antiphosphotyrosine antibody were from EGFR because the enzyme preparation contained low impurities.

[9] = molecular target: BRAF^V600E (Mus musculus, UniProt P28028, V585E); test: BRAF^V600E inhibitory assay
[10] = test system: BRAF^V600E; test: BRAF^V600E inhibitory assay; settings: ratio of BRAF^V600E IC50 versus erlotinib
[11] = test system: breast cancer (MCF-7); test: Antiproliferative assay, MCF-7; assay type: cell-based, human; settings: for IC50: Homo sapiens, MCF7, MCF-7 breast cancer cell line, read-out: Antiproliferative activity IC50 ± SEM (nM) MCF-7
Method: as §1, §2, §3

[12] = test system: lung cancer (A-549); test: Antiproliferative assay, A-549; assay type: cell-based; settings: Homo sapiens, A549; A-549 lung cancer cell line; read-out: Antiproliferative activity IC50 ± SEM (nM) A-549
Method: as §1, §2, §3
(1 picture or pasted object on this page, not shown here)

[13] = molecular target: T1, HER-2; test: HER-2 inhibitory assay (ADP-Glo kinase assay); assay type: biochemical; settings: read-out: HER-2 inhibition IC50 ± SEM
Method: The results are presented as IC50 values. Lapatinib served as the reference medication. Appendix A describes more experimental details.
Lapatinib functioned as the reference drug. […]
4.2.5. HER-2 inhibitory assay
The ADP-Glo™ Kinase Assay was used for kinase activity detection, related kinases information:
HER-2 (ab60866, Abcam), with a concentration of 100 ng/mL. Target compounds were dissolved in DMSO to obtain drug solutions with different concentrations, and the compound concentrations in the final reaction system (100 μL) were 1 nM, 20 nM, 40 nM, 80 nM, and 100 nM, respectively. 10μL of the solution containing compounds was transferred to a 96-well plate, then added 40 μL of 1 × kinase buffer (50 mM HEPES, pH 7.5) to each well, and mixed the mixture in the 96-well plate on a shaker for 10 min. Next, added 25 μL of ADP-Glo™ reagent to the above wells, mixed and incubated for another 40 min. Distributed 10 μL kinase detection reagent to the reaction and incubated for 30 min. Finally, the full-wavelength microplate reader was used to record the OD value.
4.3. Statistical analysis
Computerized Prism 5 program was used to statistically analyzed data using one-way ANOVA test followed by Tukey’s as post ANOVA for multiple comparison at P ≤.05. Data were presented as […]

[14] = test system: colon cancer (HT-29); test: Antiproliferative assay, HT-29; assay type: cell-based; settings: Homo sapiens; HT-29 colon cancer cell line; read-out: Antiproliferative activity IC50 ± SEM (nM) HT-29
Method: as §1, §2, §3

BRAF^V600E (Mus musculus, UniProt P28028, V585E), sequence (P28028 whole entry V585E): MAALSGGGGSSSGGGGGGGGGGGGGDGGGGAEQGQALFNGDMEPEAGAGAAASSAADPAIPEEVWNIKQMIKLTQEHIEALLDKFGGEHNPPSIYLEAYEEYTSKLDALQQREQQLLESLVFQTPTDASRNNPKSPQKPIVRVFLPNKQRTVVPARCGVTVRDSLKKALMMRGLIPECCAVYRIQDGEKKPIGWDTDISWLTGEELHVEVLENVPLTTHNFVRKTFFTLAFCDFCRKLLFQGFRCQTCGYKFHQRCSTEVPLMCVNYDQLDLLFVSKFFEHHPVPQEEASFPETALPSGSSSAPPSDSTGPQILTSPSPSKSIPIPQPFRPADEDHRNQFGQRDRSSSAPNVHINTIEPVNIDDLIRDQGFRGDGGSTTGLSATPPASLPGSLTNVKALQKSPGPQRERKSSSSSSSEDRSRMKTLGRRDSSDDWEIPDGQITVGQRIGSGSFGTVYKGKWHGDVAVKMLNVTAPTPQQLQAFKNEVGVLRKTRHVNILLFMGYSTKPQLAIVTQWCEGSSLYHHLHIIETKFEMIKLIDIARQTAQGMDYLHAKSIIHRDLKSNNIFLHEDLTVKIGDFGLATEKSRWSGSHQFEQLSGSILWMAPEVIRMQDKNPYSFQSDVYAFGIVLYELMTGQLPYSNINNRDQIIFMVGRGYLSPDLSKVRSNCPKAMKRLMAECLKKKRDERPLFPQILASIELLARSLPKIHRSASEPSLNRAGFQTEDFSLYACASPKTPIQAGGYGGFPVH
T1 sequence (P04626 23-1255): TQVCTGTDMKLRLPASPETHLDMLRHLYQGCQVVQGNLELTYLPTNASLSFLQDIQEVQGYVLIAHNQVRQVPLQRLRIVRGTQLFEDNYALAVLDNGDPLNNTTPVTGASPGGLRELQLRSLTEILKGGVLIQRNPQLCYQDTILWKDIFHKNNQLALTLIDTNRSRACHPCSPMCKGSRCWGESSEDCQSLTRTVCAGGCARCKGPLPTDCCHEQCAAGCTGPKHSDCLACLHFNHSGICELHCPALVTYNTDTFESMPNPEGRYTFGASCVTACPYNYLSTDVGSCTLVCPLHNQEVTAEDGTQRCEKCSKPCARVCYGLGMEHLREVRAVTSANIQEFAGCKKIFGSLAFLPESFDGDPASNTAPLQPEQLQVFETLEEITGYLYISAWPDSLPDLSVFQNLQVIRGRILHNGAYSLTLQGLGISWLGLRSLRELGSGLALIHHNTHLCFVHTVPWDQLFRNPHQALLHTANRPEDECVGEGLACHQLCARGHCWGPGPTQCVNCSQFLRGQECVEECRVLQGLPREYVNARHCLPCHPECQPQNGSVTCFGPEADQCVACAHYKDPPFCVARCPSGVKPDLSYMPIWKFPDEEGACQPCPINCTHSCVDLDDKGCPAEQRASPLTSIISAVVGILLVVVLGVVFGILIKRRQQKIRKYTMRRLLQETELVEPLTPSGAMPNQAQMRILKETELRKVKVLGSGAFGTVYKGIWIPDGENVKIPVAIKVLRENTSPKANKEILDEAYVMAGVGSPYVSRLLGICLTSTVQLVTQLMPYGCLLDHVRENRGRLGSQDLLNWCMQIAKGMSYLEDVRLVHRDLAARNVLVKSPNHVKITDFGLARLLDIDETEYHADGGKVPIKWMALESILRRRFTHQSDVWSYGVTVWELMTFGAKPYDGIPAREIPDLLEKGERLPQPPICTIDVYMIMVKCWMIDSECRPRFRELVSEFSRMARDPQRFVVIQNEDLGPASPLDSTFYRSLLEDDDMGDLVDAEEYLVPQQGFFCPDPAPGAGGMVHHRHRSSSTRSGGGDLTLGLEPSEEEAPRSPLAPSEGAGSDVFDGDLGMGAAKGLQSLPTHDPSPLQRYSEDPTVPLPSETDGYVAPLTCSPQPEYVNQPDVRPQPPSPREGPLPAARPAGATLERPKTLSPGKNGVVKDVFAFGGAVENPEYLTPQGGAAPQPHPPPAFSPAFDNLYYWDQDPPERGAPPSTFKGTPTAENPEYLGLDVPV
T2 sequence (P00533 669-1210): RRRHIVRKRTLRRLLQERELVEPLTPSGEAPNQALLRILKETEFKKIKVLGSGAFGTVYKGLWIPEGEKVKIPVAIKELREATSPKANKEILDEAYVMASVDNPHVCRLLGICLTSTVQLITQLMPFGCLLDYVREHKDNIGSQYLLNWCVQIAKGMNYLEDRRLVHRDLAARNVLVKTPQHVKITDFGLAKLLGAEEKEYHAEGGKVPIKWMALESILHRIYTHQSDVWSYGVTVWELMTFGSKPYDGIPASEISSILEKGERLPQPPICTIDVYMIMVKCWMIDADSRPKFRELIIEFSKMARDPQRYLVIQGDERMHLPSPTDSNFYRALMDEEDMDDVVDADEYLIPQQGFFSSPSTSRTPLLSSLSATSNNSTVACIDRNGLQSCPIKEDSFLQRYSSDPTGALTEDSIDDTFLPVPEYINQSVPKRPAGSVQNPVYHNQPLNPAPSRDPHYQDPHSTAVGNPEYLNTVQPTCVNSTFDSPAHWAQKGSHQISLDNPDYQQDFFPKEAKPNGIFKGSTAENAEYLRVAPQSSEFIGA
BRAF^V600E, sequence (P28028 whole entry V585E): as the sequence (P28028 whole entry V585E) above

| SMILES | GI50 [1] | IC50 [2] | IC50 [3] | IC50 [4] | IC50 [5] | viability at 4 days, 50 µM [6] | GI50 [7] | GI50 ([7]; Homo sapiens) | Times more effective than erlotinib (GI50) [7] | IC50 [8] | IC50 [9] | Fold reduced potency compared to erlotinib, BRAF^V600E [10] | IC50 [11] | IC50 [12] | IC50 [13] | IC50 [14] | Fold more potency than erlotinib, EGFR ([8]; ratio of EGFR IC50 versus erlotinib) | Potency fold greater than erlotinib, MCF-7 ([11]; ratio of IC50 versus erlotinib, MCF-7) |
| --- | --- | --- | --- | --- | --- | --- | --- | --- | --- | --- | --- | --- | --- | --- | --- | --- | --- | --- |
| COc1cccc2c1C(=O)c1c(O)c3c(c(O)c1C2=O)C[C@@](O)(C(=O)CO)C[C@@H]3O[C@H]1C[C@H](N)[C@H](O)[C@H](C)O1 [doxorubicin] | 1400 nM | – | – | – | – | – | – | – | – | – | – | – | – | – | – | – | – | – |
| O=c1[nH]c2ccccc2c(O)c1/C=N/c1ccc(NS(=O)(=O)c2ncccn2)cc1 [Compound I] | – | 31 nM | 71 nM | – | – | – | – | – | – | – | – | – | – | – | – | – | – | – |
| CC(=NO)c1ccc(NC(=O)c2cc(-c3ccc(S(C)(=O)=O)cc3)nc3ccccc23)cc1 [Compound II] | 1200 nM | – | – | 105 ± 10 nM | – | – | – | – | – | – | – | – | – | – | – | – | – | – |
| COc1ccc(C2C(C#N)=C(N)Oc3c2c(=O)[nH]c2ccc(OC)cc32)cc1 (stereo not drawn) [Compound 5h, 2-Amino-9-methoxyl-4-(4-methoxylphenyl)-5-oxo-5,6-dihydro-4H-pyrano[3,2-c]quinoline-3-carbonitrile] | – | – | – | – | 29 ± 2 nM | 91% | 28 nM | 26 nM | 1.25 fold | 75 ± 4 nM | 67 ± 3 nM | 1.1 fold | 26 ± 2 nM | 28 ± 2 nM | 23 ± 1 nM | 29 ± 2 nM | – | – |
| Cn1c(=O)c2c(c3ccccc31)OC(N)=C(C#N)C2c1ccccc1 (stereo not drawn) [Compound 5e, 2-Amino-6-methyl-5-oxo-4-phenyl-5,6-dihydro-4H-pyrano[3,2-c]quinoline-3-carbonitrile] | – | – | – | – | 28 ± 2 nM | 90% | – | 26 nM | 1.3 fold | 71 ± 4 nM | 62 ± 3 nM | – | 24 ± 2 nM | 26 ± 2 nM | 21 ± 1 nM | 27 ± 2 nM | 1.2 fold | 1.7 fold |
| COc1ccc(C2C(C#N)=C(N)Oc3c2c(=O)n(C)c2ccccc32)cc1 (stereo not drawn) [Compound 5i, 2-Amino-6-methyl-4-(4-methoxylphenyl)-5-oxo-5,6-dihydro-4H-pyrano[3,2-c]quinoline-3-carbonitrile] | – | – | – | – | 31 ± 2 nM | 90% | – | 30 nM | – | 78 ± 4 nM | 74 ± 4 nM | 1.3 fold | 27 ± 2 nM | 30 ± 2 nM | 31 ± 2 nM | 33 ± 2 nM | – | – |
| Cc1ccc2c3c(c(=O)[nH]c2c1)C(c1ccccc1)C(C#N)=C(N)O3 (stereo not drawn) [Compound 5d, 2-Amino-8-methyl-5-oxo-4-phenyl-5,6-dihydro-4H-pyrano[3,2-c]quinoline-3-carbonitrile] | – | – | – | – | 36 ± 3 nM | 93% | – | 35 nM | – | 87 ± 5 nM | 83 ± 5 nM | – | 31 ± 2 nM | 35 ± 3 nM | 39 ± 2 nM | 37 ± 3 nM | – | – |

From PMC12517401, “Design, synthesis, and antiproliferative activity of new 2-amino-pyrano[3,2-c]quinoline-3-carbonitriles as potential EGFR, BRAF^V600E, and HER-2 inhibitors” (RSC Advances, 2025)
